Holding throughout (format): in vivo
A short description of experiment [1]: Flavor / organoleptic characteristics of the alkyldienamides. To be noted: for Primary characteristic / Secondary characteristic: flavor characteristics; for Taste and flavor characteristics: organoleptic properties.
Experiment [2] is described as follows: Alcoholic peach beverage tasting versus control beverage. To be noted: 20 PPM compound plus 60 PPM peach flavor in 30° Proof alcoholic base. The protocol: Flavored beverages were prepared using the following 30° Proof alcoholic base:
The peach flavor applied to the beverages consisted of a blend of Gamma Decalactone, Benzaldehyde, Cis-3-hexenol, Butyric acid, 2-Methyl butyric acid, Iso butyl acetate, Linalool, and para-Mentha-8-thiol-3-one. The control beverage contained 60 PPM of the above flavor blend. […] Another beverage was prepared containing 60 PPM of the same flavor and 20 PPM of N-(3,4-methylenedioxy)benzyl E2,Z6-nonadienamide.

A short description of experiment [3]: Toothpaste tasting in normal tooth brushing versus control paste. As to conditions: 200 ppm compound added to mint control paste. The method, then:
The following separate groups of ingredients were prepared:
2.0 parts by weight of sodium n-Lauroyl sarcosinate (foaming agent)
1.0 parts by weight of the flavor material which is a blend of peppermint oil, spearmint oil, anethole, and menthol.
• (1) The ingredients in Group “A” were stirred and heated in a steam jacketed kettle to 160° F. • (2) Stirring was continued for an additional 3 to 5 minutes to form a homogeneous gel. • (3) The powders of Group “B” were added to the gel, while mixing until a homogeneous paste is formed. • (4) With stirring, the flavor of Group “D” was added, followed by addition immediately thereafter of the foaming agent of Group “C”. • (5) The resultant slurry was then blended for one hour.
The completed paste was then transferred to a three-roller mill, homogenized and finally tubed. […] To this control paste 200 ppm of N-Isobutyl E2,Z6-dodecadienamide is added.

Experiment [4] can be described thus: Hard candy (cinnamon bark oil) tasting versus control candy. As to conditions: 100 PPM compound in cinnamon bark oil candy. The protocol:
The above ingredients were added to a stainless steel pot. With constant mixing the ingredients were brought to 295° F. The pot was removed from the heat and 0.5 grams of cinnamon bark oil was blended in. This liquid candy was then deposited into molds where it was left to cool. This recipe yielded 200 grams of finished candy. […] Another candy sample was prepared using the above recipe with the addition of 100 PPM of N-Methyl E2,Z6-nonadienamide.

The nature of experiment [5]: Non-alcoholic lemon lime beverage tasting versus control beverage. To be noted: 0.5 PPM compound plus 35 PPM lemon oil/lime oil flavor; versus control beverage with flavor only. The protocol: A non-alcoholic beverage formulation was prepared according to the following formulation: […]
The flavor applied to the beverages consisted of a blend of single fold lemon oil and distilled lime oil. The control beverage contained 35 PPM of this flavor. […] Another beverage was prepared containing 35 PPM of the same flavor and 0.5 PPM of N-Ethyl E2,Z6-nonadienamide.

Turning to `CCCCC/C=C\CC/C=C/C(=O)NCC` [N-ethyl E2,Z6-dodecadienamide], in experiment [1], the Primary characteristic result is “MSG like” and the Secondary characteristic entry is given as “Burning”.
`CC/C=C\CC/C=C/C(=O)NCc1ccc2c(c1)OCO2` [N-(3,4-methylenedioxy) benzyl E2,Z6-nonadienamide]: in experiment [1], the Primary characteristic result was “Numbing”; the Secondary characteristic entry was “Tingle”; the “Taste and flavor characteristics” value is “Numbing and tingle”. For the same molecule, the “Taste effect in alcoholic beverage” value in experiment [2] is “an enhanced perception of alcohol, increased flavor impact, and a tingle effect on the tongue”.
In the case of `CC/C=C\CC/C=C/C(=O)NC1CC1` [N-cyclopropyl E2,Z6-nonadienamide], in experiment [1], the Primary characteristic entry is on record as “Umami” and the Secondary characteristic result was “Enhancement”.
Take `CC/C=C\CC/C=C/C(=O)NCC(C)O` (stereo not drawn) [N-(2-hydroxypropyl) E2,Z6-nonadienamide]: the “Taste and flavor characteristics” value in experiment [1] is given as “Cloying, fatty, cod liver oil, fishy”.
For the molecule `CCCCC/C=C\CC/C=C/C(=O)NCC(C)CC` (stereo not drawn) [N-(2-methylbutyl) E2,Z6-dodecadienamide], in experiment [1], the Primary characteristic entry is listed as “Fruity”; the Secondary characteristic entry is recorded as “Salt like”; the “Taste and flavor characteristics” value is on record as “Slightly fruity, tingle, salty”.
With `CCCCC/C=C\CC/C=C/C(=O)NCC(C)C` [N-isobutyl E2,Z6-dodecadienamide], in experiment [1], the Primary characteristic result is given as “Numbing” and the Secondary characteristic entry is “Tingle”. Besides, in experiment [3], the “Additional sensation of toothpaste (tingle, numbing)” value is “tingle on the tongue and a slight numbing on the lips”; the “Flavor / cooling of toothpaste” value is recorded as “moderate cooling without the bitterness of the control sample”.
For the molecule `CC/C=C\CC/C=C/C(=O)NCC(C)C` [N-isobutyl E2,Z6-nonadienamide], the Secondary characteristic result in experiment [1] was “MSG like”.
Consider `CCCCC/C=C\CC/C=C/C(=O)NC(C)C` [N-isopropyl E2,Z6-dodecadienamide], for which, in experiment [1], the Secondary characteristic result was “Tingle”; the “Taste and flavor characteristics” value is reported as “Oily flavor, slight tingle”.
As to `CC/C=C\CC/C=C/C(=O)NC(C)C` [N-isopropyl E2,Z6-nonadienamide], in experiment [1], the Primary characteristic entry is “Cucumber taste”; the Secondary characteristic entry is reported as “Tingle”; the “Taste and flavor characteristics” value is recorded as “Oily, cucumber, some tingle, bitter”.
Regarding `CC/C=C\CC/C=C/C(=O)NC` [N-methyl E2,Z6-nonadienamide], in experiment [1], the Primary characteristic entry is “Tingle”; the Secondary characteristic result is listed as “Numbing”; the “Taste and flavor characteristics” value is “Warming, tingle”. The “Taste effect in hard candy” value in experiment [4] was “a greener flavor with less warmth, a slight numbing and a moderate level of tingle”.
As for `CC/C=C\CC/C=C/C(=O)NCC(C)CC` (stereo not drawn) [N-(2-methylbutyl) E2,Z6-nonadienamide], in experiment [1], the Primary characteristic entry is “Bitter”; the Secondary characteristic result is recorded as “Tingle”; the “Taste and flavor characteristics” value was “Metallic, bitter, tingle”.
On to `CC/C=C\CC/C=C/C(=O)NCC` [N-ethyl E2,Z6-nonadienamide], for which, in experiment [1], the Primary characteristic entry is “Umami”; the Secondary characteristic result is “Enhancement”; the “Taste and flavor characteristics” value is “Umami character”. Moreover, in experiment [5], the “Taste effect in non-alcoholic beverage” value is “enhanced flavor impact, increased tartness, and an increased perception of freshness”.
